Experimental data from the supplement of paper PMC10627819.

Columns and labels:
[1] = system: S. aureus Newman; experiment: fitness (endpoint OD595 vs no drug) (fraction); higher = more growth
Procedure, shortened: (§1)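 Cultures at OD595 0.01 were dispensed into 384-well plates in TSB, LB Lennox or CY and incubated at 37 °C. Every 30 min for 14 h, OD595 was read and corrected by the first reading. Fitness is the optical density at entry into stationary phase relative to the robust mean of no-drug control wells, capped at 1.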

[2] = system: B. subtilis 168; experiment: as above
Procedure, shortened: as §1

[3] = system: S. aureus DSM 20231; experiment: as above
Procedure, shortened: as §1

[4] = system: S. aureus Newman; experiment: Bliss interaction score (quartile over a dose matrix) (fitness difference); higher = more antagonism (negative = synergy)
Procedure, shortened: (§2)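 Quartiles of the Bliss score were taken over technical, biological and donor/recipient replicates. That score is observed fitness minus the product of the single-drug fitness values, which were inferred from combination data. Fitness itself is OD595 at entry into stationary phase divided by the plate's robust no-drug mean, with a cap at 1.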

[5] = system: B. subtilis 168; experiment: as above
Procedure, shortened: as §2

[6] = system: S. pneumoniae D39V; experiment: as above
Procedure, shortened: as §2

[7] = system: S. aureus DSM 20231; experiment: as above
Procedure, shortened: as §2

[8] = system: S. pneumoniae D39V; experiment: fitness (endpoint OD595 vs no drug) (fraction); higher = more growth
Procedure, shortened: as §1
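Wherever Bliss interaction score (quartile over a dose matrix) is given: first quartile when negative (synergy) and third quartile when positive (antagonism).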

CC[C@H]1OC(=O)[C@H](C)[C@@H](O[C@H]2C[C@@](C)(OC)[C@@H](O)[C@H](C)O2)[C@H](C)[C@@H](O[C@@H]2O[C@H](C)C[C@H](N(C)C)[C@H]2O)[C@](C)(O)C[C@@H](C)CN(C)[C@H](C)[C@@H](O)[C@]1(C)O [Azithromycin] + C[C@@H]1O[C@@H]1P(=O)(O)O [Fosfomycin]
fitness
Settings | partner 0.781 µg/mL | partner 1.562 µg/mL | partner 3.124 µg/mL | partner 6.248 µg/mL
[1], first compound 0.125 µg/mL | 0.622 | 0.525 | 0.18 | –
[1], first compound 0.25 µg/mL | 0.597 | 0.429 | 0.0915 | –
[1], first compound 0.5 µg/mL | 0.312 | 0.128 | 0.0235 | –
[2], first compound 0.25 µg/mL | – | 0.713 | 0.61 | 0.445
[2], first compound 0.5 µg/mL | – | 0.622 | 0.582 | 0.442
[3], first compound 0.125 µg/mL | 0.728 | 0.615 | 0.509 | –
[3], first compound 0.25 µg/mL | 0.68 | 0.625 | 0.554 | –
[3], first compound 0.5 µg/mL | 0.526 | 0.306 | 0.124 | –

[2], first compound 2 µg/mL, one replicate
Settings | fitness
partner 1.562 µg/mL | 0.367
partner 3.124 µg/mL | 0.176
partner 6.248 µg/mL | 0.0795

Settings | Bliss interaction score
[4] | -0.12
[5] | 0.0745
[6] | 0.0708
[7] | -0.0651

CN(N=O)C(=O)N[C@@H](C=O)[C@@H](O)[C@H](O)[C@H](O)CO [Streptozotocin] + CN[C@H](CC(C)C)C(=O)N[C@H]1C(=O)N[C@@H](CC(N)=O)C(=O)N[C@H]2C(=O)N[C@H]3C(=O)N[C@H](C(=O)N[C@H](C(=O)O)c4cc(O)cc(O)c4-c4cc3ccc4O)[C@H](O)c3ccc(c(Cl)c3)Oc3cc2cc(c3O[C@@H]2O[C@H](CO)[C@@H](O)[C@H](O)[C@H]2O[C@H]2C[C@](C)(N)[C@H](O)[C@H](C)O2)Oc2ccc(cc2Cl)[C@H]1O [Vancomycin]
fitness
Settings | first compound 0.15 µg/mL | first compound 0.3 µg/mL | first compound 0.6 µg/mL | first compound 1.2 µg/mL | first compound 2.4 µg/mL | first compound 4.8 µg/mL
[1], partner 0.1875 µg/mL | 0.861 | 0.792 | 0.585 | – | – | –
[1], partner 0.375 µg/mL | 0.82 | 0.758 | 0.515 | – | – | –
[1], partner 0.75 µg/mL | 0.885 | 0.763 | 0.539 | – | – | –
[3], partner 0.1875 µg/mL | 0.861 | 0.757 | 0.716 | – | – | –
[3], partner 0.375 µg/mL | 0.912 | 0.845 | 0.767 | – | – | –
[3], partner 0.75 µg/mL | 0.946 | 0.895 | 0.839 | – | – | –
[8], partner 0.03125 µg/mL | – | – | – | 0.998 | 0.99 | 0.999
[8], partner 0.0625 µg/mL | – | – | – | 0.911 | 0.881 | 0.932
[8], partner 0.125 µg/mL | – | – | – | 0.746 | 0.757 | 0.794

fitness, [8], one replicate
Settings | first compound 1.2 µg/mL | first compound 2.4 µg/mL | first compound 4.8 µg/mL
partner 0.25 µg/mL | 0.655 | 0.639 | 0.536
partner 0.5 µg/mL | 0.327 | 0.333 | 0.424

Settings | Bliss interaction score
[4] | -0.0371
[5] | -0.0175
[6] | 0.0398
[7] | 0.0534
